# Source: patent publication US11478460B2, “Diaryl substituted 6,5-fused ring compounds as C5aR inhibitors” (CHEMOCENTRYX, INC., priority 2017, dated 2022)
# Molecular target: C5aR (Homo sapiens (Human), UniProt P21730)
# Test: Chemotaxis assay using U937 cells (C5aR mediated migration)
# Format: cell-based
# Conditions: read-out: Mig IC50
# Procedure, shortened: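 Migration toward 0.03 nM C5a, mixed with varying compound in the lower chamber (HBSS with 1% FBS), was measured over 1.5 h at 37° C through 5 μm filters. Upper chamber held 100,000 U937 cells treated overnight with 0.5 mM cAMP; migrated cells quantified by counts or CyQuant for IC50, SDF-1α as specificity control.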
# C5aR, sequence (P21730 whole entry): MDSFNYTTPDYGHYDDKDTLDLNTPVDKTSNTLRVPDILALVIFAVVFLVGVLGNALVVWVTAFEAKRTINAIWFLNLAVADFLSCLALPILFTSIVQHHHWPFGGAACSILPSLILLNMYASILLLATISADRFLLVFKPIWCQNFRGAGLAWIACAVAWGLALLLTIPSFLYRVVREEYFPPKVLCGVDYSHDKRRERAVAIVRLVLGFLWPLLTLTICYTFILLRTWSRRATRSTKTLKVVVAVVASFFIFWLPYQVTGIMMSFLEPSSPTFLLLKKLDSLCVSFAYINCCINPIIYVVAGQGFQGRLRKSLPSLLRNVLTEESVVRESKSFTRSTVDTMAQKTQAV
row,Structure (SMILES),IC50 [nM]
1,COc1cc(-c2c3c(nn2-c2c(C)cccc2OCC(C)C)CCN(c2ncc(C(F)(F)F)cc2F)C3)ccc1NC(N)=O [Example 1.267],5 to 50
2,Cc1cc(NC(N)=O)ccc1-c1c2c(nn1-c1c(C)cccc1OCC(C)C)CCN(c1ncc(C(F)(F)F)cc1F)C2 [Example 1.268],5 to 50
3,Cc1cccc(OCC(C)C)c1-n1nc2c(c1-c1ccc(NC(N)=O)cc1Cl)CN(c1ncc(C(F)(F)F)cc1F)CC2 [Example 1.269],≤ 5
4,Cc1cccc(OCC(C)C)c1-n1nc2c(c1-c1ccc(NC(N)=O)cc1F)CN(c1ncc(C(F)(F)F)cc1F)CC2 [Example 1.270],≤ 5
5,Cc1cccc(OCC(C)C)c1-n1nc2c(c1-c1ccc(NC(N)=O)cc1)CN(c1ncccc1C(F)(F)F)CC2 [Example 1.271],5 to 50
6,Cc1cccc(OCC(C)C)c1-n1nc2c(c1-c1ccc(NC(N)=O)c(F)c1)CN(CC1CCCC1)CC2 [Example 1.272],≤ 5
7,Cc1cccc(OCC(C)C)c1-n1nc2c(c1-c1ccc(NC(N)=O)c(F)c1)CN(CC(C)C)CC2 [Example 1.273],5 to 50
8,Cc1cccc(OCC(C)C)c1-n1nc2c(c1-c1ccc(NC(N)=O)c(F)c1)CN(CC(C)(C)C)CC2 [Example 1.274],≤ 5
9,Cc1cccc(OCC(C)C)c1-n1nc2c(c1-c1ccc(NC(N)=O)c(Cl)c1)CN(c1ncc(C(F)(F)F)cc1F)CC2 [Example 1.275],≤ 5
10,Cc1cccc(OCC(C)C)c1-n1nc2c(c1-c1ccc(NC(N)=O)c(F)c1)CN(c1ncc(C(F)(F)F)cc1Cl)CC2 [Example 1.276],≤ 5
11,Cc1cccc(OCC(C)C)c1-n1nc2c(c1-c1ccc(NC(N)=O)c(F)c1)CN(Cc1ccc(C(F)(F)F)cc1C(F)(F)F)CC2 [Example 1.277],≤ 5
12,CCc1cccc(CC)c1-n1nc2c(c1-c1ccc(NC(N)=O)cc1)CN(Cc1ccc(Cl)cc1C(F)(F)F)CC2 [Example 1.278],5 to 50
13,Cc1cccc(OCC(C)C)c1-n1nc2c(c1-c1ccc(N)c(Cl)c1)CN(c1ncc(C(F)(F)F)cc1F)CC2 [Example 1.279],5 to 50
14,Cc1cccc(OCC(C)C)c1-n1nc2c(c1-c1ccc(NC(N)=O)cc1)CN(Cc1cc(Cl)ccc1OC(C)C)CC2 [Example 1.280],5 to 50
15,CCc1cccc(CC)c1-n1nc2c(c1-c1ccc(NC(N)=O)cc1)CN(C(c1ccccc1C(F)(F)F)C(C)C)CC2 (stereo not shown) [Example 1.281],≤ 5
16,CCc1cccc(CC)c1-n1nc2c(c1-c1ccc(NC(N)=O)cc1)CN(CC(C)(C)C)CC2 [Example 1.282],5 to 50
17,CCc1cccc(CC)c1-n1nc2c(c1-c1ccc(NC(N)=O)cc1)CN(Cc1ccccn1)CC2 [Example 1.283],> 500
18,CCc1cccc(CC)c1-n1nc2c(c1-c1ccc(NC(N)=O)cc1)CN(Cc1cc(Cl)ccc1OC(C)C)CC2 [Example 1.284],5 to 50
19,CCc1cccc(CC)c1-n1nc2c(c1-c1ccc(NC(N)=O)cc1)CN(CC(C)(C)C(F)(F)F)CC2 [Example 1.285],5 to 50
20,CCc1cccc(CC)c1-n1nc2c(c1-c1ccc(NC(N)=O)cc1)CN(C(CC)c1ccccc1C(F)(F)F)CC2 (stereo not shown) [Example 1.286],5 to 50
21,Cc1cc(C)c(-n2nc3c(c2-c2ccc(NC(N)=O)cc2)CN(c2ncc(C(F)(F)F)cc2F)CC3)c(C)c1 [Example 1.287],5 to 50
22,Cc1cccc(OCC(C)C)c1-n1nc2c(c1-c1ccc(NC(N)=O)c(F)c1)CN(c1ncc(C(F)(F)F)cc1F)CC2 [Example 1.288],≤ 5

row,Structure (SMILES),IC50 [nM]
1,Cc1cccc(OCC(C)C)c1-n1nc2c(c1-c1ccc(NC(=O)N(C)C)cc1)CN(c1ncc(C(F)(F)F)cc1F)CC2 [Example 1.289],> 500
2,CCc1cccc(CC)c1-n1nc2c(c1-c1ccc(NC(N)=O)cc1)CN(Cc1c(C)cccc1C)CC2 [Example 1.290],5 to 50
3,CCc1cccc(CC)c1-n1nc2c(c1-c1ccc(NC(N)=O)cc1)CN(Cc1cc(Cl)ccc1Cl)CC2 [Example 1.291],5 to 50
4,CCc1cccc(CC)c1-n1nc2c(c1-c1ccc(NC(N)=O)cc1)CN(Cc1cc(Cl)ccc1C(F)(F)F)CC2 [Example 1.292],5 to 50
5,CCc1cccc(CC)c1-n1nc2c(c1-c1ccc(NC(N)=O)cc1)CN(Cc1ccccc1C(F)(F)F)CC2 [Example 1.293],5 to 50
6,Cc1cccc(OCC(C)C)c1-n1nc2c(c1-c1ccc(N)c(F)c1)CN(c1ncc(C(F)(F)F)cc1F)CC2 [Example 1.294],5 to 50
7,CCc1cccc(CC)c1-n1nc2c(c1-c1ccc(NC(N)=O)cc1)CN(C(C)c1ccccc1C(F)(F)F)CC2 (stereo not shown) [Example 1.295],5 to 50
8,Cc1cnc(N2CCc3nn(-c4c(C)cccc4OCC(C)C)c(-c4ccc(NC(N)=O)cc4)c3C2)c(C(F)(F)F)c1 [Example 1.296],≤ 5
9,CCc1cccc(CC)c1-n1nc2c(c1-c1ccc(NC(N)=O)cc1)CN(Cc1c(Cl)cccc1C(F)(F)F)CC2 [Example 1.297],5 to 50
10,Cc1cccc(OCC(C)C)c1-n1nc2c(c1-c1ccc(NC(N)=O)cc1)CN(S(=O)(=O)c1ccccc1C(F)(F)F)CC2 [Example 1.298],50 to 500
11,Cc1cccc(OCC(C)C)c1-n1nc2c(c1-c1ccc(NC(N)=O)cc1)CN(Cc1c(C(F)(F)F)ccc(Cl)c1F)CC2 [Example 1.299],≤ 5
12,Cc1ccc(C(F)(F)F)c(CN2CCc3nn(-c4c(C)cccc4OCC(C)C)c(-c4ccc(NC(N)=O)cc4)c3C2)c1 [Example 1.300],≤ 5
13,CCc1cccc(CC)c1-n1nc2c(c1-c1ccc(NC(N)=O)cc1)CN(c1ncc(C(F)(F)F)cc1F)CC2 [Example 1.301],5 to 50
14,COc1ccc(Cl)c(CN2CCc3nn(-c4c(C)cccc4OCC(C)C)c(-c4ccc(NC(N)=O)cc4)c3C2)c1 [Example 1.302],5 to 50
15,Cc1cccc(OCC(C)C)c1-n1nc2c(c1-c1ccc(NC(N)=O)cc1)CN(C(C)c1ccc(C(F)(F)F)cc1)CC2 (stereo not shown) [Example 1.303],5 to 50
16,COc1ccc(CN2CCc3nn(-c4c(C)cccc4OCC(C)C)c(-c4ccc(NC(N)=O)cc4)c3C2)c(Cl)c1 [Example 1.304],5 to 50
17,COc1cc(CN2CCc3nn(-c4c(C)cccc4OCC(C)C)c(-c4ccc(NC(N)=O)cc4)c3C2)c(F)cc1Cl [Example 1.305],5 to 50
18,Cc1cccc(OCC(C)C)c1-n1nc2c(c1-c1ccc(NC(N)=O)cc1)CN(C(C)c1ccc(C(F)(F)F)cc1)CC2 (stereo not shown) [Example 1.306],≤ 5
19,Cc1cccc(OCC(C)C)c1-n1nc2c(c1-c1ccc(NC(N)=O)cc1)CN(Cc1c(F)cc(F)cc1F)CC2 [Example 1.307],5 to 50
20,Cc1ccc(CN2CCc3nn(-c4c(C)cccc4OCC(C)C)c(-c4ccc(NC(N)=O)cc4)c3C2)c(F)c1 [Example 1.308],≤ 5
21,Cc1cccc(OCC(C)C)c1-n1nc2c(c1-c1ccc(NC(N)=O)cc1)CN(Cc1cc(Cl)ccc1F)CC2 [Example 1.309],≤ 5
22,Cc1cccc(OCC(C)C)c1-n1nc2c(c1-c1ccc(NC(N)=O)cc1)CN(Cc1cc(F)ccc1F)CC2 [Example 1.310],5 to 50

row,Structure (SMILES),IC50 [nM]
1,Cc1cccc(CCC(C)C)c1-n1nc2c(c1-c1ccc(NC(N)=O)cc1)CN(c1ncc(C(F)(F)F)cc1F)CC2 [Example 1.311],5 to 50
2,Cc1ccc(CN2CCc3nn(-c4c(C)cccc4OCC(C)C)c(-c4ccc(NC(N)=O)cc4)c3C2)c(Cl)c1 [Example 1.312],≤ 5
3,Cc1cccc(OCC(C)C)c1-n1nc2c(c1-c1ccc(NC(N)=O)cc1)CN(Cc1ccccc1Cl)CC2 [Example 1.313],5 to 50
4,Cc1cccc(OCC(C)C)c1-n1nc2c(c1-c1ccc(NC(N)=O)cc1)CN(C(C)c1cccc(C(F)(F)F)c1)CC2 (stereo not shown) [Example 1.314],5 to 50
5,Cc1cccc(OCC(C)C)c1-n1nc2c(c1-c1ccc(NC(N)=O)cc1)CN(Cc1ccc(C(F)(F)F)cc1Cl)CC2 [Example 1.315],≤ 5
6,Cc1cccc(OCC(C)C)c1-n1nc2c(c1-c1ccc(NC(N)=O)cc1)CN(Cc1ccc(F)cc1F)CC2 [Example 1.316],≤ 5
7,Cc1cccc(OCC(C)C)c1-n1nc2c(c1-c1ccc(NC(N)=O)cc1)CN(c1ccc(Cl)cc1C(F)(F)F)CC2 [Example 1.317],≤ 5
8,Cc1cccc(OCC(C)C)c1-n1nc2c(c1-c1ccc(NC(N)=O)cc1)CN(c1ccc(F)cc1C(F)(F)F)CC2 [Example 1.318],≤ 5
9,Cc1cccc(OCC(C)C)c1-n1nc2c(c1-c1ccc(NC(N)=O)cc1)CN(C(C)c1cccc(C(F)(F)F)c1)CC2 (stereo not shown) [Example 1.319],≤ 5
10,Cc1cccc(OCC(C)C)c1-n1nc2c(c1-c1ccc(NC(N)=O)cc1)CN(Cc1cc(F)ccc1Cl)CC2 [Example 1.320],≤ 5
11,Cc1ccc(N2CCc3nn(-c4c(C)cccc4OCC(C)C)c(-c4ccc(NC(N)=O)cc4)c3C2)c(C(F)(F)F)c1 [Example 1.321],≤ 5
12,Cc1cccc(OCC(C)C)c1-n1nc2c(c1-c1ccc(NC(N)=O)cc1)CN(c1ncc(F)cc1C(F)(F)F)CC2 [Example 1.322],≤ 5
13,Cc1cccc(OCC(C)C)c1-n1nc2c(c1-c1ccc(NC(N)=O)cc1)CN(Cc1ccc(Cl)cc1F)CC2 [Example 1.323],≤ 5
14,Cc1cccc(OCC(C)C)c1-n1nc2c(c1-c1ccc(NC(N)=O)cc1)CN(Cc1cc(Cl)ccc1Cl)CC2 [Example 1.324],≤ 5
15,Cc1cccc(OCC(C)C)c1-n1nc2c(c1-c1ccc(NC(N)=O)cc1)CN(Cc1cc(Cl)ccc1C(F)(F)F)CC2 [Example 1.325],≤ 5
16,Cc1cccc(OCC(C)C)c1-n1nc2c(c1-c1ccc(NC(N)=O)cc1)CN(Cc1ccc(F)cc1Cl)CC2 [Example 1.326],≤ 5
17,Cc1cccc(OCC(C)C)c1-n1nc2c(c1-c1ccc(NC(N)=O)cc1)CN(Cc1ccc(Cl)cc1C(F)(F)F)CC2 [Example 1.327],≤ 5
18,Cc1cccc(OCC(C)C)c1-n1nc2c(c1-c1ccc(NC(N)=O)cc1)CN(Cc1ccc(Cl)cc1Cl)CC2 [Example 1.328],≤ 5
19,Cc1cccc(OCC(C)C)c1-n1nc2c(c1-c1ccc(NC(N)=O)cc1)CN(Cc1ccc(C(F)(F)F)cc1F)CC2 [Example 1.329],≤ 5
20,Cc1cccc(OCC(C)C)c1-n1nc2c(c1-c1ccc(NC(N)=O)cc1)CN(C(C)c1ccccc1C(F)(F)F)CC2 (stereo not shown) [Example 1.330],≤ 5
